# Values joined by “and” are separate entries in the source; they are usually repeats but may differ in a detail not shown here. Identical values can stand only once. Like-named read-outs stand apart in the source and are kept apart here.
# Experiment: Pharmacokinetics in CD-1 mice (plasma concentrations, PK parameters)
# Assay type: in vivo
# Description: Pharmacokinetics for I-127, I-172 and I-210 were determined in Sprague Dawley rats or CD-1 mice by dosing intravenous (IV), subcutaneous (SC) or per oral (PO) using facility SOPs and sampling plasma at required time points. Species, formulation, route of administration and time points samples are listed below for each compound.
# Compounds were extracted from plasma, injected on reverse phase HPLC, eluted with a gradient from 5% to 95% acetonitrile in water and quantified by mass spectrometry with internal standard. Data are expressed in ng compound per mL of plasma.
# [1] = mouse (CD1) iv 2 mg/kg, individual Mouse 1-3, 2 mg/kg
# [2] = mouse (CD1) po 30 mg/kg, individual Mouse 4-6, 30 mg/kg
# [3] = mouse (CD1) sc 30 mg/kg, individual Mouse 7-9, 30 mg/kg
smiles,measurement,setting,value
"O=C1CCC(N2C(=O)c3cccc(NCCOCCOCCNCc4ccc(-n5cc(NC(=O)c6coc(-c7ccnc(NCC8CC8)c7)n6)c(C(F)F)n5)cc4)c3C2=O)C(=O)N1 (stereo not shown) [I-210, 2-[2-(Cyclopropylmethylamino)-4-pyridyl]-N-[3-(difluoromethyl)-1-[4-[[2-[2-[2-[[2-(2,6-dioxo-3-piperidyl)-1,3-dioxoisoindolin-4-yl]amino]ethoxy]ethoxy]ethylamino]methyl]phenyl]pyrazol-4-yl]oxazole-4-carboxamide]",Tmax,"CD-1, mouse, plasma, sc, 30 mg/kg, mouse (CD1) sc 30 mg/kg, Mean, read-out: Tmax",2.33 h
same,half-life,"CD-1, mouse, plasma, sc, 30 mg/kg, mouse (CD1) sc 30 mg/kg, individual Mouse 7-9",4.34 h
same,AUC(0-inf),"CD-1, mouse, plasma, sc, 30 mg/kg, mouse (CD1) sc 30 mg/kg, individual Mouse 7-9, read-out: AUCInf",1000 ng·h/mL
same,AUC(0-t),"CD-1, mouse, plasma, sc, 30 mg/kg, mouse (CD1) sc 30 mg/kg, individual Mouse 7-9, read-out: AUClast",980 ng·h/mL
same,Cmax,"CD-1, mouse, plasma, sc, 30 mg/kg, mouse (CD1) sc 30 mg/kg, individual Mouse 7-9, read-out: Cmax",107 ng/mL
same,MRT inf,"CD-1, mouse, plasma, sc, 30 mg/kg, mouse (CD1) sc 30 mg/kg, individual Mouse 7-9, read-out: MRTInf_obs",6.06 h
same,Concentration,"mouse (CD1) iv 2 mg/kg, 5 min, individual Mouse 1-3, 2 mg/kg",495 ng/mL and 692 ng/mL
same,Concentration,"mouse (CD1) iv 2 mg/kg, 0.25 h, individual Mouse 1-3, 2 mg/kg",382 ng/mL and 424 ng/mL
same,Concentration,"mouse (CD1) iv 2 mg/kg, 0.5 h, individual Mouse 1-3, 2 mg/kg",238 ng/mL and 306 ng/mL
same,Concentration,"mouse (CD1) iv 2 mg/kg, 1 h, individual Mouse 1-3, 2 mg/kg",164 ng/mL and 195 ng/mL
same,Concentration,"mouse (CD1) iv 2 mg/kg, 2 h, individual Mouse 1-3, 2 mg/kg",92.5 ng/mL and 90.7 ng/mL
same,Concentration,"mouse (CD1) iv 2 mg/kg, 4 h, individual Mouse 1-3, 2 mg/kg",20.2 ng/mL and 25.6 ng/mL
same,Concentration,"mouse (CD1) iv 2 mg/kg, 8 h, individual Mouse 1-3, 2 mg/kg",4.92 ng/mL and 4.93 ng/mL
same,Concentration,"mouse (CD1) iv 2 mg/kg, 24 h, individual Mouse 1-3",BLOQ
same,AUC_%Extrap_obs,"mouse (CD1) iv 2 mg/kg, Mean",1.66%
same,AUClast/D,"mouse (CD1) iv 2 mg/kg, Mean",331 h·ng/mL per mg/kg
same,Cl_obs,"mouse (CD1) iv 2 mg/kg, Mean",49.9 mL/min/kg
same,Vss_obs,"mouse (CD1) iv 2 mg/kg, Mean",4.48 L/kg
same,AUCInf,[1],597 ng·h/mL and 706 ng·h/mL
same,AUC_%Extrap_obs,[1],1.76% (2×) and 1.47%
same,AUClast,[1],586 ng·h/mL and 695 ng·h/mL
same,AUClast/D,[1],351 h·ng/mL per mg/kg and 293 h·ng/mL per mg/kg and 348 h·ng/mL per mg/kg
same,C0,[1],563 ng/mL and 884 ng/mL
same,Cl_obs,[1],46.7 mL/min/kg and 55.8 mL/min/kg and 47.2 mL/min/kg
same,MRTInf_obs,[1],1.41 h
same,T1/2,[1],1.48 h and 1.46 h
same,Vss_obs,[1],4.42 L/kg and 5.04 L/kg and 4.00 L/kg
same,Concentration,"mouse (CD1) po 30 mg/kg, 0.25 h, individual Mouse 4-6, 30 mg/kg",55.9 ng/mL and 23.7 ng/mL and 12.8 ng/mL
same,Concentration,"mouse (CD1) po 30 mg/kg, 0.5 h, individual Mouse 4-6, 30 mg/kg",120 ng/mL and 23.0 ng/mL and 22.2 ng/mL
same,Concentration,"mouse (CD1) po 30 mg/kg, 1 h, individual Mouse 4-6, 30 mg/kg",153 ng/mL and 16.9 ng/mL and 45.1 ng/mL
same,Concentration,"mouse (CD1) po 30 mg/kg, 2 h, individual Mouse 4-6, 30 mg/kg",91.1 ng/mL and 112 ng/mL
same,Concentration,"mouse (CD1) po 30 mg/kg, 4 h, individual Mouse 4-6, 30 mg/kg",143 ng/mL and 123 ng/mL
same,Concentration,"mouse (CD1) po 30 mg/kg, 8 h, individual Mouse 4-6, 30 mg/kg",34.8 ng/mL and 17.1 ng/mL and 16.4 ng/mL
same,Concentration,"mouse (CD1) po 30 mg/kg, 24 h, individual Mouse 4-6",BLOQ
same,AUC_%Extrap_obs,"mouse (CD1) po 30 mg/kg, Mean",9.8%
same,AUClast/D,"mouse (CD1) po 30 mg/kg, Mean",22.5 h·ng/mL per mg/kg
same,F,"mouse (CD1) po 30 mg/kg, Mean",7.47%
same,AUCInf,[2],681 ng·h/mL and 662 ng·h/mL
same,AUC_%Extrap_obs,[2],14.2% and 7.97% and 7.15%
same,AUClast,[2],627 ng·h/mL and 615 ng·h/mL
same,AUClast/D,[2],26.2 h·ng/mL per mg/kg and 20.9 h·ng/mL per mg/kg and 20.5 h·ng/mL per mg/kg
same,Cmax,[2],143 ng/mL and 123 ng/mL
same,F,[2],9.09% and 6.76% and 6.57%
same,MRTInf_obs,[2],4.24 h and 3.97 h
same,T1/2,[2],2.20 h and 2.00 h
same,Concentration,"mouse (CD1) sc 30 mg/kg, 0.25 h, individual Mouse 7-9, 30 mg/kg",93.0 ng/mL and 70.1 ng/mL
same,Concentration,"mouse (CD1) sc 30 mg/kg, 0.5 h, individual Mouse 7-9, 30 mg/kg",101 ng/mL and 66.6 ng/mL
same,Concentration,"mouse (CD1) sc 30 mg/kg, 1 h, individual Mouse 7-9, 30 mg/kg",107 ng/mL and 76.5 ng/mL
same,Concentration,"mouse (CD1) sc 30 mg/kg, 2 h, individual Mouse 7-9, 30 mg/kg",115 ng/mL and 81.1 ng/mL
same,Concentration,"mouse (CD1) sc 30 mg/kg, 4 h, individual Mouse 7-9, 30 mg/kg",91.8 ng/mL and 105 ng/mL
same,Concentration,"mouse (CD1) sc 30 mg/kg, 8 h, individual Mouse 7-9, 30 mg/kg",49.0 ng/mL and 42.0 ng/mL
same,Concentration,"mouse (CD1) sc 30 mg/kg, 24 h, individual Mouse 7-9, 30 mg/kg",2.88 ng/mL and 2.05 ng/mL
same,AUC_%Extrap_obs,"mouse (CD1) sc 30 mg/kg, Mean",1.60%
same,AUClast/D,"mouse (CD1) sc 30 mg/kg, Mean",33.9 h·ng/mL per mg/kg
same,F,"mouse (CD1) sc 30 mg/kg, Mean",10.3%
same,AUCInf,[3],1119 ng·h/mL and 983 ng·h/mL
same,AUC_%Extrap_obs,[3],2.26% and 1.48% and 1.07%
same,AUClast,[3],1102 ng·h/mL and 973 ng·h/mL
same,AUClast/D,[3],32.7 h·ng/mL per mg/kg and 36.7 h·ng/mL per mg/kg and 32.4 h·ng/mL per mg/kg
same,Cmax,[3],115 ng/mL and 105 ng/mL
same,F,[3],9.94% and 11.1% and 9.75%
same,MRTInf_obs,[3],5.82 h and 5.73 h
same,T1/2,[3],3.98 h and 3.56 h
same,Tmax,[3],1 h
